The target of this test is Mitogen-activated protein kinase kinase kinase kinase 1 (Homo sapiens, UniProt Q92918). Description: Biochemical Assay: The enzymatic activity of human HPK1 (MAP4K1) was monitored in a biochemical assay in the presence or absence of compounds and using a synthetic peptide substrate. An increase in phosphorylation of the peptide by HPK1 was indicative of its kinase activity.Recombinant HPK1 kinase domain produced via baculovirus infection of insect cells was obtained from Proteros (Proteros Biostructures #PR-0322) and was pre-activated in the presence of 2 mM ATP (Sigma-Aldrich, cat #GE27-2056-01) and 2 mM magnesium chloride for 16 hours at 4° C. The protein reaction mixture was then loaded to a desalting column (Thermo Fisher Scientific, Cat #89889) to remove excess ATP. HPK1 was eluted with buffer containing 20 mM Tris (2-Amino-2-(hydroxymethyl)propane-1,3-diol) pH 8.0, 150 mM NaCl, 2 mM dithiothreitol and 5% glycerol, and was frozen at −80° C. for later use. HPK1 dual phosphorylation was confirmed by mass spectrometry.
Sequence of Mitogen-activated protein kinase kinase kinase kinase 1 (Q92918 whole entry, the tested form may be a part): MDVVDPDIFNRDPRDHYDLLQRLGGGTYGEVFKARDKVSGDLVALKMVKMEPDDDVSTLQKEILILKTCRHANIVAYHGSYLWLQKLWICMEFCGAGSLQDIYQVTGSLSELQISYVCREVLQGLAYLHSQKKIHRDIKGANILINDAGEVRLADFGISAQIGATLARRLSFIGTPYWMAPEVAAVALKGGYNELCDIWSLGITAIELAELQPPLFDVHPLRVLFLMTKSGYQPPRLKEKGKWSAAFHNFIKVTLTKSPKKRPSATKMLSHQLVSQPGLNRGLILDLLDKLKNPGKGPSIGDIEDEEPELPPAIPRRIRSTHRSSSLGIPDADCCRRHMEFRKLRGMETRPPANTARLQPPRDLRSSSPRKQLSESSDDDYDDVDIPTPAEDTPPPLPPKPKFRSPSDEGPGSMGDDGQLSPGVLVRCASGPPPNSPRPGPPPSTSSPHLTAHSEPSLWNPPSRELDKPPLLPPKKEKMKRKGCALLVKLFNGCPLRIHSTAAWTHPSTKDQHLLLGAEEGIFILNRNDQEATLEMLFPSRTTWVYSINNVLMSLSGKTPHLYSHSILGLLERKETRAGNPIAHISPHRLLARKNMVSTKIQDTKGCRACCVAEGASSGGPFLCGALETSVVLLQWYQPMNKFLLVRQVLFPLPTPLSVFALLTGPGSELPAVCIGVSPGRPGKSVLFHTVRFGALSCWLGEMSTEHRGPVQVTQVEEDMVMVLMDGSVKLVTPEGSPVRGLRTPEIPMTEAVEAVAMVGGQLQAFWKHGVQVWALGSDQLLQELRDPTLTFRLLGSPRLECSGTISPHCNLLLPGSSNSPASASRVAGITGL

As a reminder, the IC50 is the concentration that inhibits the measured activity by half. Consider `Cc1c(-c2cc(F)c3c(c2)/C(=C/c2cc4cnccc4[nH]2)C(=O)N3)cnc2c1NCCO2`, for which the half-inhibitory concentration (IC50) is 100 pM.

Values taken from ChEMBL document CHEMBL5729337, “Substituted eneoxindoles and uses thereof” (2022).
